{"source": "ChEMBL document CHEMBL1201862", "about": "“PubChem BioAssay data set” (2004)", "key": {"[1]": {"experiment": "LGR2 antagonists, dose response, cell-based, HEK293, CRE-luciferase reporter, cherry pick, set 2 (AID 743343);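 note: transfected cells were stimulated with diluted bursicon conditioned medium after compound addition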", "type": "functional"}, "[2]": {"experiment": "Late stage counterscreen results from the probe development effort to identify activators of signal transducer and activator of transcription 1 (STAT1): luminescence-based cell-based dose response assay to identify cytotoxic compounds.", "type": "functional"}, "[3]": {"experiment": "MC4R antagonists, dose response, counter-screen for LGR2 antagonist project, cell-based, plate reader, cherry pick (AID 743444);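 note: transfected HEK 293 cells stimulated with alpha-MSH peptide; potency of inhibitors of the alpha-MSH evoked signal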", "type": "functional"}, "[4]": {"experiment": "P. falciparum Dd2 blood-stage growth inhibition, dose response, SYBR Green fluorescence, erythrocytes, dry powder, set 2 (AID 1159574)", "type": "functional, cell-based"}, "[5]": {"experiment": "P. falciparum Dd2 growth inhibitors, dose response, SYBR Green, dry powder samples, set 9 (AID 1159568)", "type": "functional, cell-based"}, "[6]": {"experiment": "inhibitors of intracellular T. cruzi replication, confirmation, NIH3T3 host cells, beta-gal luminescence (AID 2044);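 note: luminescent beta-galactosidase reporter signal from transgenic T. cruzi replicating inside host cells; inhibitors lower the luminescence signal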", "type": "functional, cell-based"}, "INS1": {"test_system": "INS1", "experiment": "beta cell apoptosis inhibitors, cytokine rescue, dose response, luminescence, retest (AID 449756);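 note: cell death triggered by IL-1 beta plus TNF-alpha plus IFN-gamma mixture; protective hits raise ATP signal compared with cytokine alone wells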", "type": "functional, cell-based", "conditions": "Rattus norvegicus"}, "[7]": {"experiment": "cytotoxicity toward NIH3T3 fibroblasts, dose response, counter-screen, cell-based, ATP luminescence, mouse fibroblasts (AID 2010);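 note: cells exposed to compound for about 90 hours before reading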", "type": "functional"}, "[8]": {"experiment": "Vero cell cytotoxicity, dose response, cytotoxicity control for Vif-APOBEC3G degradation inhibitor project, Vero cells (AID 1117358)", "type": "functional", "conditions": "Human immunodeficiency virus 1, Vero"}, "Coagulation factor XII": {"molecular_target": "T1, Coagulation factor XII (Homo sapiens, UniProt P00748)", "T1 sequence (P00748 whole entry)": "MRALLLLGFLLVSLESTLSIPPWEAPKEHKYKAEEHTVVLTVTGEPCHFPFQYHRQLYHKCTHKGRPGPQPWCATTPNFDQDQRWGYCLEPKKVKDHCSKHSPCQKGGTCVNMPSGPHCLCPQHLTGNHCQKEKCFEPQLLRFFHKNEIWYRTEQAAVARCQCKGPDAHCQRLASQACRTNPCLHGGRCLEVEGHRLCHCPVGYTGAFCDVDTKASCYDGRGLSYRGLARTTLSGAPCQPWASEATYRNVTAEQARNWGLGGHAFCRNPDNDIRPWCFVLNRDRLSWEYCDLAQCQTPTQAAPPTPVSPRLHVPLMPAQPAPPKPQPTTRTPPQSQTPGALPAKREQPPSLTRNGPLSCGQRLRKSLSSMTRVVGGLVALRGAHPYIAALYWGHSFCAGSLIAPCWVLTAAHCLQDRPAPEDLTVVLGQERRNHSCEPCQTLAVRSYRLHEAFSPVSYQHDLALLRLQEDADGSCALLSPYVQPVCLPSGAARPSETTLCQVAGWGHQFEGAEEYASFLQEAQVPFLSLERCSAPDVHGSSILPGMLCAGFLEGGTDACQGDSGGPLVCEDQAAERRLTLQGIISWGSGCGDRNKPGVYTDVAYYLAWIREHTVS", "type": "functional"}, "[9]": {"experiment": "inhibitors of Vif binding to APOBEC3G peptide, primary screen, biochemical, TR-FRET, GST-Vif 1-94, biotin-A3G peptide, dose response retest (AID 1117319);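 note: inhibitors lower the FRET signal by blocking Vif and A3G binding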", "type": "functional"}, "[10]": {"experiment": "HepG2 cell cytotoxicity, dose response, cytotoxicity control, plate reader, dry powder samples (AID 1159569);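 note: inhibitor potency with signal falling toward the positive control level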", "type": "functional, cell-based"}, "[11]": {"experiment": "P. falciparum 3D7-ScDHODH growth inhibitors, dose response, SYBR Green, dry powder samples (AID 1159570);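 note: parasite growth measured after 72 hours of compound exposure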", "type": "functional, cell-based"}, "[12]": {"experiment": "P. falciparum ATP4 D1247Y mutant growth inhibitors, dose response, NITD609-resistant line, SYBR Green, dry powder (AID 1159571);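 note: parasites synchronized at ring stage by sorbitol before testing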", "type": "functional, cell-based"}, "[13]": {"experiment": "P. falciparum Dd2 growth inhibitors, dose response, SYBR Green, cherry-picked samples (AID 1159567)", "type": "functional, cell-based"}, "[14]": {"experiment": "P. falciparum Dd2 growth inhibitors, dose response, SYBR Green, dry powder samples (AID 1159566);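 note: potency for growth inhibition with lower SYBR green DNA signal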", "type": "functional, cell-based"}, "[15]": {"molecular_target": "E3 ubiquitin-protein ligase Mdm2 (Homo sapiens, UniProt Q00987)", "sequence (Q00987 whole entry)": "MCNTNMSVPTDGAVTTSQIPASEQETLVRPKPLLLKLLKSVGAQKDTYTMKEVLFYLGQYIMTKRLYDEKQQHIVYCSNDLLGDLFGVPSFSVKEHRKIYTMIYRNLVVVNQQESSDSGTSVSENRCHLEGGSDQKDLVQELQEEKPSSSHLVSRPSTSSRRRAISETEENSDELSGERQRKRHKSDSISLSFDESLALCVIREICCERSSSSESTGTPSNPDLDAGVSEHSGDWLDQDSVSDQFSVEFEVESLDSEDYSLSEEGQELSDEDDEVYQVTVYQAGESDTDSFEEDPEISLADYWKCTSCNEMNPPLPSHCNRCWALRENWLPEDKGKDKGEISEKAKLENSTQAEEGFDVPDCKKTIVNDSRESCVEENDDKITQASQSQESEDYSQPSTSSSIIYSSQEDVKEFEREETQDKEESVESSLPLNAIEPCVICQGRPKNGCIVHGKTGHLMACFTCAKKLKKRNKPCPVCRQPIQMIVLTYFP", "experiment": "enhancers of MDM2-luciferase reporter signal, concentration-effect titration, project on inhibitors of MDM2 ubiquitin ligase, cellular assay, luminescent readout, 384-well plate format (AID 1394);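 note: MDM2 E3 inhibitors raise luminescence so EC50 is for signal enhancement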", "type": "functional"}, "[16]": {"experiment": "TB: CFU replicating Measured in Microorganism System Using Imaging - 7108-05_Inhibitor_Dose_DryPowder_Activity_Set2.", "type": "functional"}, "NADPH oxidase 1": {"molecular_target": "NADPH oxidase 1 (Homo sapiens, UniProt Q9Y5S8)", "sequence (Q9Y5S8 whole entry)": "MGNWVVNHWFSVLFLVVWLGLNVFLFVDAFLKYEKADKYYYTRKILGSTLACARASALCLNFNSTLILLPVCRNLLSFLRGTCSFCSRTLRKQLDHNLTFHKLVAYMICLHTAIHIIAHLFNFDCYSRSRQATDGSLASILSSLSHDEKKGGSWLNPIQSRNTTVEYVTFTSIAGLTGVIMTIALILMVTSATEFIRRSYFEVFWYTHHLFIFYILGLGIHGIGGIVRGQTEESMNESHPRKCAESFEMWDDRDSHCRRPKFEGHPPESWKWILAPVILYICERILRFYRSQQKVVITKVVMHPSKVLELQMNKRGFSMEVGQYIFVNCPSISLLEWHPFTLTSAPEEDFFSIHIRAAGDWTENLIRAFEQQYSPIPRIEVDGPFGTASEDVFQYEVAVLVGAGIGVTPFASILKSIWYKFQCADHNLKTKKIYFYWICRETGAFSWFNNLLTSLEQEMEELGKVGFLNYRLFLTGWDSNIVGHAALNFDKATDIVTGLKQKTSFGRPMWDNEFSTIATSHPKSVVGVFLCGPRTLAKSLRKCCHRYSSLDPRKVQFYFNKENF", "experiment": "Late-stage luminescence-based cell-based dose response assay to identify inhibitors of NADPH oxidase 1 (NOX1): Synthesized analogs 2.", "type": "functional"}}, "note": "The source made the active and inactive calls."}
{"smiles": "COc1ccc(-c2cc(C)nc3c(-c4ccccc4)cnn23)cc1", "values": [{"measurement": "AC50", "setting": "[1]", "value": "15.9 µM (active)"}, {"measurement": "IC50", "setting": "[2]", "value": "> 55.7 µM (not active)"}, {"measurement": "AC50", "setting": "[3]", "value": "20.1 µM (active)"}]}
{"smiles": "COc1ccc(S(=O)(=O)N(C)C[C@H]2OCc3ccccc3-c3c(n(C)c4ccccc34)C(=O)N([C@H](C)CO)C[C@H]2C)cc1", "values": [{"measurement": "AC50", "setting": "[4]", "value": "6.22 µM (active)"}]}
{"smiles": "Cc1ccc(S(=O)(=O)N(C)C[C@@H]2Oc3cc(C#CC4CCCC4)ccc3S(=O)(=O)N([C@@H](C)CO)C[C@H]2C)cc1", "values": [{"measurement": "AC50", "setting": "[5]", "value": "1.33 µM (active)"}]}
{"smiles": "Cc1ccccc1N1CCN(Cc2c[nH]c3ccccc23)CC1", "values": [{"measurement": "EC50", "setting": "[6]", "value": "0.623 µM (active)"}, {"measurement": "AC50", "setting": "INS1", "value": "7.61 µM (active)"}, {"measurement": "EC50", "setting": "[7]", "value": "> 60 µM (not active)"}, {"measurement": "CC50", "setting": "[8]", "value": "> 40 µM (active)"}, {"measurement": "IC50", "setting": "Coagulation factor XII", "value": "> 50 µM (inactive)"}, {"measurement": "IC50", "setting": "[9]", "value": "> 100 µM (active)"}]}
{"smiles": "COc1ccc(C#Cc2ccc([C@@H]3[C@@H](CO)N4CCCCN(C(=O)Nc5ccccc5F)C[C@H]34)cc2)cc1", "values": [{"measurement": "AC50", "setting": "[10]", "value": "15.7 µM (active)"}, {"measurement": "AC50", "setting": "[11]", "value": "1.37 µM (active)"}, {"measurement": "AC50", "setting": "[12]", "value": "1.45 µM (active)"}, {"measurement": "AC50", "setting": "[13]", "value": "1.89 µM (active)"}, {"measurement": "AC50", "setting": "[14]", "value": "0.8 µM (active)"}]}
{"smiles": "CC(C)Oc1ccc(C(=O)NC(=S)N2CCOCC2)cc1", "values": [{"measurement": "EC50", "setting": "[15]", "value": "25 µM (not active)"}]}
{"smiles": "Cc1cccc(C(=O)Nc2nc3ccccc3n2C)c1", "values": [{"measurement": "AbsAC90", "setting": "[16]", "value": 360.23, "unit": "µM"}]}
{"smiles": "CC(=O)c1ccc2c(c1)N(C(=O)Nc1ccccc1)c1ccccc1S2", "values": [{"measurement": "IC50", "setting": "NADPH oxidase 1", "value": "1.56 µM (active)"}]}
